28 compounds from patent US11583532B2, “Triazolopyrimidine derivatives for use as ghrelin o-acyl transferase (GOAT) inhibitors” (Boehringer Ingelheim International GmbH, priority 2018, dated 2023) can be followed below.

Values joined by “and” are separate entries in the source; they are usually repeats but may differ in a detail not shown here. Equal values may be shown once.

Sequence of human GOAT (ghrelin O-acyl transferase) (Q96T53 whole entry): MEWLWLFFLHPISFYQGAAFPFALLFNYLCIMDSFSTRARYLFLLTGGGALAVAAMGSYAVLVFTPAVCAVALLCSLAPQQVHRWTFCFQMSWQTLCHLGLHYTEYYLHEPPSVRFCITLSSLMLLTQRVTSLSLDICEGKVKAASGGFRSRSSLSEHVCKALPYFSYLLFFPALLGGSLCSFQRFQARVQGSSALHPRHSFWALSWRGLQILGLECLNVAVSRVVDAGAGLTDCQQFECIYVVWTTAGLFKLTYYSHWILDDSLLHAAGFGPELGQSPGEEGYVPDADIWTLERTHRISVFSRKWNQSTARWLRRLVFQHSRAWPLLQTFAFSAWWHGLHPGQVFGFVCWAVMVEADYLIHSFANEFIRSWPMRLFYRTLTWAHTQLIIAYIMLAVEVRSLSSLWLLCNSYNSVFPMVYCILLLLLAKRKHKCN

The assay deals with human GOAT (ghrelin O-acyl transferase) (Homo sapiens (Human), UniProt Q96T53). Kind of assay: Determination of hGOAT activity in HEK293 cells after incubation with test compound (acyl-ghrelin ELISA). The assay is classed as cell-based. Conditions: HEK293 cells stably transfected with preproghrelin and human GOAT cDNA; octanoate-BSA 100 μM; 5 hours incubation; acyl-ghrelin in medium by ELISA; 8 compound concentrations. On the procedure:
Determination of hGOAT Activity in HEK293 Cells after incubation with test compound
HEK293 cells stably transfected with two expression vectors, one coding for preproghrelin cDNA and a second for the expression of human GOATcDNA are used as a cellular model. After feeding the cells with octanoic acid for 5 hours, acyl-ghrelin is measured in cell culture medium by an ELISA procedure.
Cellline: Hek293 hGOAT/PPGhrl Clone #1B8Sodium octanoate, Sigma, Cat.-No. C5038
BSA: Sigma, Cat.-No. A8806
BD Poly-D-Lysin 384-well Plates, black-clear polystyrene BD Bioscience Cat.-No. […] ELISA human acylated Ghrelin Kit purchased from Bertin Pharman (detailed composition of buffers e.g. wash-puffer, ELISA buffer not known)
All further reagents used were of highest analytical grade available.
Cells are plated with a density of 5000 cells/well in 384-well poly-D-lysin plates and incubated for 1 day at 37° C., 5% CO2 in DMEM medium, 10% FCS, 1×NEAA, Puromycin (0.5 μg/ml) and G418 (1 mg/ml). Then the medium is changed to a identical medium without FCS and containing Octanoate-BSA (final concentration 100 μM each) and compound in DMSO (final DMSO concentration 0.3%). After incubation for 5 hours acylghrelin in the medium is measured by ELISA.
The medium sample is diluted 1:25 in Elisa buffer, a 25 μl aliquot is transferred to a 384-well ELISA plate previously washed 4 times with 100 μL wash buffer, and 25 μl tracer-solution is added. After incubation overnight (˜20 h) at 4° C. temperature the plate is washed 4 times with 100 μl wash-buffer per well. Finally 50 μl Ellman's reagent is added to each well and the plate is incubated in the dark for 20 minutes. The absorbance is measured at 405 nm in an Envision multilabel reader and the amount of acylated ghrelin is calculated according to a acylated ghrelin standard curve provided in the same plate.
The analysis of the data is performed by calculation of the percentage of acyl-ghrelin produced in the presence of test compound compared to the amount of acyl-ghrelin produced in the vehicle control samples. An inhibitor of the GOAT enzyme will give values between 100% CTL (no inhibition) and 0% CTL (complete inhibition).
IC50 values are calculated with Assay Explorer or other suited software based on curve fitting of results of 8 different compound concentrations.
`Cc1nc2ncnn2c(N)c1Cc1ccc(OC(F)(F)F)c(N=S2(=O)CCC2)c1` [Example 11.2] returned an IC50 of 0.68 nM.

Take `Cc1nc2ncnn2c(N)c1Cc1ccc(OC(F)F)c(C#N)n1` [Example 12.1, 6-({7-Amino-5-methyl-[1,2,4]triazolo[1,5-a]pyrimidin-6-yl}methyl)-3-(difluoromethoxy)pyridine-2-carbonitrile]: half-maximal inhibition (IC50) was put at 4.4 nM. In the case of `Cc1nc2ncnn2c(N)c1Cc1cccc(-c2cn(C)nc2C(F)(F)F)n1` [Example 13.1, 5-Methyl-6-({6-[1-methyl-3-(trifluoromethyl)-1H-pyrazol-4-yl]pyridin-2-yl}methyl)-[1,2,4]triazolo[1,5-a]pyrimidin-7-amine], the IC50 was 1.7 nM. Turning to `Cc1nc2ncnn2c(N)c1Cc1cccc(-c2c[nH]nc2C(F)(F)F)n1` [Example 13.2], the IC50 came out at 2.1 nM. Then `Cc1nc2ncnn2c(N)c1Cc1ccc(Br)c(C2(C#N)CC(F)(F)C2)n1` [Example 14.1, 1-[6-({7-Amino-5-methyl-[1,2,4]triazolo[1,5-a]pyrimidin-6-yl}methyl)-3-bromopyridin-2-yl]-3,3-difluorocyclobutane-1-carbonitrile], with 0.31 nM; and `COC(=O)c1cc(Cc2c(C)nc3ncnn3c2N)ccc1OC(F)(F)F` [Example 15.1, Methyl 5-({7-amino-5-methyl-[1,2,4]triazolo[1,5-a]pyrimidin-6-yl}methyl)-2-(trifluoromethoxy)benzoate], with 0.83 nM. With `Cc1nc2ncnn2c(N)c1Cc1ccc(OC(F)(F)F)c(C(=O)N(C)C)c1` [Example 15.2, 5-({7-Amino-5-methyl-[1,2,4]triazolo[1,5-a]pyrimidin-6-yl}methyl)-N,N-dimethyl-2-(trifluoromethoxy)benzamide], the IC50 was 3.5 nM and 5.4 nM.

In turn, `Cc1nc2ncnn2c(N)c1Cc1ccc(OC(F)(F)F)c(C(=O)NC(C)C)c1` [Example 15.3] yielded an IC50 of 8.6 nM. `Cc1nc2ncnn2c(N)c1Cc1ccc(OC(F)(F)F)c(C(N)=O)c1` [Example 15.4] returned an IC50 of 9.3 nM. As to `Cc1nc2ncnn2c(N)c1Cc1ccc(-c2c[nH]nc2C(F)(F)F)c(N)n1` [Example 16.1, 6-({7-Amino-5-methyl-[1,2,4]triazolo[1,5-a]pyrimidin-6-yl}methyl)-3-[3-(trifluoromethyl)-1H-pyrazol-4-yl]pyridin-2-amine], the IC50 was found to be 3.1 nM. As to `Nc1c(Cc2ccc(C(F)(F)F)cc2)c(C(F)F)nc2ncnn12` [Example 17.1, 5-(Difluoromethyl)-6-{[4-(trifluoromethyl)phenyl]methyl}-[1,2,4]triazolo[1,5-a]pyrimidin-7-amine], the IC50 came out at 0.95 nM. Take `Cc1nc2ncnn2c(N)c1Cc1ccc(C(F)(F)F)cc1Br` [Example 17.2]: half-maximal inhibition (IC50) was put at 5 nM. Regarding `Cc1nc2ncnn2c(N)c1Cc1ccc(S(=O)(=O)C(F)(F)F)cc1` [Example 18.1, 5-Methyl-6-[(4-trifluoromethanesulfonylphenyl)methyl]-[1,2,4]triazolo[1,5-a]pyrimidin-7-amine], the IC50 was 4.2 nM. On to `Cc1nc2ncnn2c(N)c1Cc1ccc([S+]([O-])C(F)(F)F)cc1` (stereo not shown) [Example 19.1, 5-M ethyl-6-[(4-trifluoromethanesulfinylphenyl)methyl]-[1,2,4]triazolo[1,5-a]pyrimidin-7-amine], for which inhibition was half-maximal at 4.9 nM (IC50).

Regarding `Cc1nc2ncnn2c(N)c1Cc1ccc(OC(F)(F)F)c(C#N)c1` [Example 20.1, 5-({7-Amino-5-methyl-[1,2,4]triazolo[1,5-a]pyrimidin-6-yl}methyl)-2-(trifluoromethoxy)benzonitrile], the IC50 came to 9.2 nM. The compound `Cc1nc2ncnn2c(N)c1Cc1ccc(C(F)(F)F)cc1F` [Example 21.1, 6-{[2-Fluoro-4-(trifluoromethyl)phenyl]methyl}-5-methyl-[1,2,4]triazolo[1,5-a]pyrimidin-7-amine] had an IC50 of 8.1 nM. Compound `Cc1nc2ncnn2c(N)c1Cc1ccc(Br)c(C(=O)OCC(F)(F)F)c1` [Example 22.1, 2,2,2-Trifluoroethyl 5-({7-amino-5-methyl-[1,2,4]triazolo[1,5-a]pyrimidin-6-yl}methyl)-2-bromobenzoate] yielded an IC50 of 7.2 nM. `Cc1nc2ncnn2c(N)c1Cc1ccc(Br)c(N2CCC(F)(F)C2)n1` [Example 23.1, 6-{[5-Bromo-6-(3,3-difluoropyrrolidin-1-yl)pyridin-2-yl]methyl}-5-methyl-[1,2,4]triazolo[1,5-a]pyrimidin-7-amine] registered an IC50 of 0.25 nM. With `Cc1nc2ncnn2c(N)c1Cc1ccc(Br)c(N2CCC(F)(F)CC2)n1` [Example 23.2], the IC50 was determined as 0.29 nM. Regarding `Cc1nc2ncnn2c(N)c1Cc1ccc(Br)c(N2CC(F)(F)C2)n1` [Example 23.3], the IC50 came out at 0.36 nM. `Cc1nc2ncnn2c(N)c1Cc1ccc(Br)c(N2CCC(C(F)(F)F)C2)n1` (stereo not shown) [Example 23.4]: half-maximal inhibition (IC50) required 0.7 nM.

Consider `Cc1nc2ncnn2c(N)c1Cc1ccc(Br)c(N2CCC(O)(C(F)(F)F)C2)n1` (stereo not shown) [Example 23.5], for which 0.83 nM corresponded to half-maximal inhibition (IC50). On to `Cc1nc2ncnn2c(N)c1Cc1ccc(Br)c(N2Cc3ccc(F)cc3C2)n1` [Example 23.6], for which half-maximal inhibition (IC50) was put at 0.86 nM.

Compound `Cc1nc2ncnn2c(N)c1Cc1ccc(Br)c(N2CC(C(F)(F)F)C2)n1` [Example 23.7] came in with an IC50 of 7.7 nM. Then `Cc1nc2ncnn2c(N)c1Cc1ccc(C(F)(F)F)c(C#N)n1` [Example 24.1, 6-({7-Amino-5-methyl-[1,2,4]triazolo[1,5-a]pyrimidin-6-yl}methyl)-3-(trifluoromethyl)pyridine-2-carbonitrile], with 4.6 nM; and `COc1cc(C(F)(F)F)ccc1Cc1c(Cl)nc2ncnn2c1N` [Example 25.1, 5-Chloro-6-{[2-methoxy-4-(trifluoromethyl)phenyl]methyl}-[1,2,4]triazolo[1,5-a]pyrimidin-7-amine], with 0.83 nM; and `COc1cc(Cc2c(Cl)nc3ncnn3c2N)ccc1C(F)(F)F` [Example 25.2], with 1 nM. On to `Nc1c(Cc2ccc(C(F)(F)F)cc2)c(Cl)nc2ncnn12` [Example 25.3], for which the IC50 was 5.7 nM.
